Read-outs that look alike come from different tables or passages of the source.
Key:
Test in all cases: biochemical
[1] = target: T1, panel of 374 wild-type kinases (Homo sapiens, UniProt P08631); conditions: read-out: % Enzyme Activity (relative to DMSO controls), HCK
T1 construct: purchased Reaction Biology Corporation

[2] = target: T2, panel of 374 wild-type kinases (Homo sapiens, UniProt P16234); conditions: read-out: % Enzyme Activity (relative to DMSO controls), kinase PDGFRa
T2 construct: purchased Reaction Biology Corporation

[3] = target: T3, panel of 374 wild-type kinases (Homo sapiens, UniProt Q8N752); conditions: read-out: % Enzyme Activity (relative to DMSO controls), CK1a1L
T3 construct: purchased Reaction Biology Corporation
T3 sequence (Q8N752 1-337): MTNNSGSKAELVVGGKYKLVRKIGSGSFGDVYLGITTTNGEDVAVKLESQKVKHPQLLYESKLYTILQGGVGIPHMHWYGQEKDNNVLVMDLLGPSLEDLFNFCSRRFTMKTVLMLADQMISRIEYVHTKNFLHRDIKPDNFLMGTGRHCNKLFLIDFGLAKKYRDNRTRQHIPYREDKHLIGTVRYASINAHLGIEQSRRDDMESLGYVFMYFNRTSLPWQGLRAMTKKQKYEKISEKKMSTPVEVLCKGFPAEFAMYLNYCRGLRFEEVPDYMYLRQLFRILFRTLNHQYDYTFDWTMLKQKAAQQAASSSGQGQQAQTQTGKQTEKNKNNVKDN

[4] = target: T4, panel of 374 wild-type kinases (Homo sapiens, UniProt P06493)
T4 construct: purchased Reaction Biology Corporation

[5] = target: T5, panel of 374 wild-type kinases (Homo sapiens, UniProt Q16512); conditions: read-out: % Enzyme Activity (relative to DMSO controls), kinase PKN1/PRK1
T5 construct: purchased Reaction Biology Corporation

[6] = target: T6, panel of 374 wild-type kinases (Homo sapiens, UniProt Q5VT25); conditions: read-out: % Enzyme Activity (relative to DMSO controls), MRCKa/CDC42BPA
T6 construct: purchased Reaction Biology Corporation

[7] = target: T7, panel of 374 wild-type kinases (Homo sapiens, UniProt P07948); conditions: read-out: % Enzyme Activity (relative to DMSO controls), LYN
T7 construct: purchased Reaction Biology Corporation

[8] = target: T8, panel of 374 wild-type kinases (Homo sapiens, UniProt Q76MJ5); conditions: read-out: % Enzyme Activity (relative to DMSO controls), ERN2/IRE2
T8 construct: purchased Reaction Biology Corporation

[9] = target: T9, panel of 374 wild-type kinases (Homo sapiens, UniProt P08922); conditions: read-out: % Enzyme Activity (relative to DMSO controls), kinase ROS/ROS1
T9 construct: purchased Reaction Biology Corporation

[10] = target: T10, panel of 374 wild-type kinases (Homo sapiens, UniProt O75716); conditions: read-out: % Enzyme Activity (relative to DMSO controls), kinase STK16
T10 construct: purchased Reaction Biology Corporation

[11] = target: T11, panel of 374 wild-type kinases (Homo sapiens, UniProt P15735); conditions: read-out: % Enzyme Activity (relative to DMSO controls), kinase PHKg2
T11 construct: purchased Reaction Biology Corporation
T11 sequence (P15735 1-406): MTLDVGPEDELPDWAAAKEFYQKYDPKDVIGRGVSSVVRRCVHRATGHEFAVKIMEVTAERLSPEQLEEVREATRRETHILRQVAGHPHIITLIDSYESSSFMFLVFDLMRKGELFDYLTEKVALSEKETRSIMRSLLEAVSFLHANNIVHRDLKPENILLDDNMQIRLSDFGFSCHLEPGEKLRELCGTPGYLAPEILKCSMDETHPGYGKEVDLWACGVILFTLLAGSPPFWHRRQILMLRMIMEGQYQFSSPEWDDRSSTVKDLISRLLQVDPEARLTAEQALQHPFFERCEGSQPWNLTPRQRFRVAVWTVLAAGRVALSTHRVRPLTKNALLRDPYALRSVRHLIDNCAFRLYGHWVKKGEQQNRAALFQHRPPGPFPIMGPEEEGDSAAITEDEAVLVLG

[12] = target: T12, panel of 374 wild-type kinases (Homo sapiens, UniProt O95747); conditions: read-out: % Enzyme Activity (relative to DMSO controls), OSR1/OXSR1
T12 construct: purchased Reaction Biology Corporation

[13] = target: T13, panel of 374 wild-type kinases (Homo sapiens, UniProt Q8WTQ7); conditions: for remaining activity at 5 µM: read-out: % Enzyme Activity (relative to DMSO controls), GRK7
T13 construct: purchased Reaction Biology Corporation
T13 sequence (Q8WTQ7 1-553): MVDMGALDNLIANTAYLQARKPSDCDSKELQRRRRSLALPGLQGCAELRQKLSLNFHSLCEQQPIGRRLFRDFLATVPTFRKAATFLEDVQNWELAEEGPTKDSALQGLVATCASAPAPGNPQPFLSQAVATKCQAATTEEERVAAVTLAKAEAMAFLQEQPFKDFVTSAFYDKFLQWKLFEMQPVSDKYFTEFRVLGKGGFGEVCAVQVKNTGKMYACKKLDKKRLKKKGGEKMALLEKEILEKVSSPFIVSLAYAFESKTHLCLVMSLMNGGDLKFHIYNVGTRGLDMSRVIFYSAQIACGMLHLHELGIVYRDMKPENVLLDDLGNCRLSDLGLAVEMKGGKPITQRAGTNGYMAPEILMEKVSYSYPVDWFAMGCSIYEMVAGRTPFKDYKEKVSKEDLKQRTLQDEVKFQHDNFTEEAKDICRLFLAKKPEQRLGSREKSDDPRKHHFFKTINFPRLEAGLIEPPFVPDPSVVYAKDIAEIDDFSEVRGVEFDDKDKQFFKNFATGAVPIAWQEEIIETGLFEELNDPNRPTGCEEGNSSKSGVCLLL

[14] = read-out: % Enzyme Activity (relative to DMSO controls), CDK1/cyclin A
[15] = read-out: % Enzyme Activity (relative to DMSO controls), CDK1/cyclin B
[16] = read-out: % Enzyme Activity (relative to DMSO controls), CDK1/cyclin E

T8 sequence (Q76MJ5 35-926): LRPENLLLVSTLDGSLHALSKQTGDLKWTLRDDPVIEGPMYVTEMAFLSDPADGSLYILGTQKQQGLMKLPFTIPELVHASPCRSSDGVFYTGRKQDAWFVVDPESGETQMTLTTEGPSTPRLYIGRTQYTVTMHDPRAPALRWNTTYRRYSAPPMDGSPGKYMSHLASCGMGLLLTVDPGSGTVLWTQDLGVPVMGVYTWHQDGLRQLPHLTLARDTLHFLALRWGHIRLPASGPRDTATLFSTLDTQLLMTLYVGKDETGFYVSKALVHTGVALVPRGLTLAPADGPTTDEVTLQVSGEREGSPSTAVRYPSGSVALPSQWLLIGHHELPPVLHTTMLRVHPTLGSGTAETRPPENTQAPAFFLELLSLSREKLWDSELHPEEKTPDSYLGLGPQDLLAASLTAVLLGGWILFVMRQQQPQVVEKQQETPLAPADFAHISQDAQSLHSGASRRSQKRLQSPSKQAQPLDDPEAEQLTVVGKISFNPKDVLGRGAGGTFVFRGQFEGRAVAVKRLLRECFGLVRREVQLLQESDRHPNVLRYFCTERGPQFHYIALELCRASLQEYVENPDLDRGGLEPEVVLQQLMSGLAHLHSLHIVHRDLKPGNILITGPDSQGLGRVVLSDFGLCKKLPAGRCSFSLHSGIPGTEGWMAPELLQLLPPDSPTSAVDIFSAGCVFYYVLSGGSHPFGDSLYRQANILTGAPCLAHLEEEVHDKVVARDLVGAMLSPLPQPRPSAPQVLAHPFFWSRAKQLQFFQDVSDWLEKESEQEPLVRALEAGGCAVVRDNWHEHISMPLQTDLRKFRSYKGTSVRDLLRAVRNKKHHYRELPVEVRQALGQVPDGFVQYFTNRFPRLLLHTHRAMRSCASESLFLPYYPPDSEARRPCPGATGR
T6 sequence (Q5VT25 whole entry): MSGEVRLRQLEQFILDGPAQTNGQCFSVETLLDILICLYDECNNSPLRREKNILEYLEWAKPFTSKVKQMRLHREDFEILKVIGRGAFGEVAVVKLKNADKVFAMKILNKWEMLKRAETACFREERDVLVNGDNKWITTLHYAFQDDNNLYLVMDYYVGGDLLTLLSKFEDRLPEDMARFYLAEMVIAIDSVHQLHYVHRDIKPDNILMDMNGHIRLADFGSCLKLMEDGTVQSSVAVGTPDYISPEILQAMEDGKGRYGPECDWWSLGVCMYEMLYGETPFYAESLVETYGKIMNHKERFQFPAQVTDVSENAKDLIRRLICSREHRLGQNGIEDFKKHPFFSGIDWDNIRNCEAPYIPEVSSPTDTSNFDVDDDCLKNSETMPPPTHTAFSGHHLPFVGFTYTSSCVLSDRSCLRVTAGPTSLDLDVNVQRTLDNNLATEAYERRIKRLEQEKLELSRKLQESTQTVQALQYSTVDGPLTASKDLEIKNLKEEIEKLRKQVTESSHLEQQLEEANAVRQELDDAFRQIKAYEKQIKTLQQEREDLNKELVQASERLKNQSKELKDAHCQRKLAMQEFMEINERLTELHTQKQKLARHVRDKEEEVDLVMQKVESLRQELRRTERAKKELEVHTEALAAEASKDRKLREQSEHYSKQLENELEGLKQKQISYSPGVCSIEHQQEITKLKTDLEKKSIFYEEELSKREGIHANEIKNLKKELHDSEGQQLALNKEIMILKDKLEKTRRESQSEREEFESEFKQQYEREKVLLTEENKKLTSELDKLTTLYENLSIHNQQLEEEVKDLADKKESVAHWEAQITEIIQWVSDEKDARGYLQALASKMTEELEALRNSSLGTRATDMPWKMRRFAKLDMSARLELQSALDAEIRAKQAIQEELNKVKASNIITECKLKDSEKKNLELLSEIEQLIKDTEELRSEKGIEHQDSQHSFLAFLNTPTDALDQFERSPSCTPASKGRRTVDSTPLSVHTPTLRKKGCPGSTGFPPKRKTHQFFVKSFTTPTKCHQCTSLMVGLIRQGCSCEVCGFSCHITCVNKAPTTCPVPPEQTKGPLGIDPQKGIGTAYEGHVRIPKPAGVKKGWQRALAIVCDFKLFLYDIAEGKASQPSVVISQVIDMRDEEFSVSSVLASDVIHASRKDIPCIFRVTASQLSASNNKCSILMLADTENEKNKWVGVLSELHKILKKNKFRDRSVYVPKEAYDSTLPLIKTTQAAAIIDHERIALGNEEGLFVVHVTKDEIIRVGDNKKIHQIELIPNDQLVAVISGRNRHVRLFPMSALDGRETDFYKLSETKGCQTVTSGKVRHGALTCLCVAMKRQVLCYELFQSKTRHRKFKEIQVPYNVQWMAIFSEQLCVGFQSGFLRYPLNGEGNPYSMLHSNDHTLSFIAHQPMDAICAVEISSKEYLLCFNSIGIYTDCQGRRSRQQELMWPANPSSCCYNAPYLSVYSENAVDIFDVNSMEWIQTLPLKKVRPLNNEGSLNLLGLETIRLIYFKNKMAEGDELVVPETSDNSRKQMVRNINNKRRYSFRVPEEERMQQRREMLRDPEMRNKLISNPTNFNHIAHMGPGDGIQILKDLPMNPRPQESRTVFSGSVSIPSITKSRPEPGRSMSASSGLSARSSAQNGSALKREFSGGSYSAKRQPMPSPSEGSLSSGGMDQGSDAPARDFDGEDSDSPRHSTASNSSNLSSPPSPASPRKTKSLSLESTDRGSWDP
T2 sequence (P16234 24-1089): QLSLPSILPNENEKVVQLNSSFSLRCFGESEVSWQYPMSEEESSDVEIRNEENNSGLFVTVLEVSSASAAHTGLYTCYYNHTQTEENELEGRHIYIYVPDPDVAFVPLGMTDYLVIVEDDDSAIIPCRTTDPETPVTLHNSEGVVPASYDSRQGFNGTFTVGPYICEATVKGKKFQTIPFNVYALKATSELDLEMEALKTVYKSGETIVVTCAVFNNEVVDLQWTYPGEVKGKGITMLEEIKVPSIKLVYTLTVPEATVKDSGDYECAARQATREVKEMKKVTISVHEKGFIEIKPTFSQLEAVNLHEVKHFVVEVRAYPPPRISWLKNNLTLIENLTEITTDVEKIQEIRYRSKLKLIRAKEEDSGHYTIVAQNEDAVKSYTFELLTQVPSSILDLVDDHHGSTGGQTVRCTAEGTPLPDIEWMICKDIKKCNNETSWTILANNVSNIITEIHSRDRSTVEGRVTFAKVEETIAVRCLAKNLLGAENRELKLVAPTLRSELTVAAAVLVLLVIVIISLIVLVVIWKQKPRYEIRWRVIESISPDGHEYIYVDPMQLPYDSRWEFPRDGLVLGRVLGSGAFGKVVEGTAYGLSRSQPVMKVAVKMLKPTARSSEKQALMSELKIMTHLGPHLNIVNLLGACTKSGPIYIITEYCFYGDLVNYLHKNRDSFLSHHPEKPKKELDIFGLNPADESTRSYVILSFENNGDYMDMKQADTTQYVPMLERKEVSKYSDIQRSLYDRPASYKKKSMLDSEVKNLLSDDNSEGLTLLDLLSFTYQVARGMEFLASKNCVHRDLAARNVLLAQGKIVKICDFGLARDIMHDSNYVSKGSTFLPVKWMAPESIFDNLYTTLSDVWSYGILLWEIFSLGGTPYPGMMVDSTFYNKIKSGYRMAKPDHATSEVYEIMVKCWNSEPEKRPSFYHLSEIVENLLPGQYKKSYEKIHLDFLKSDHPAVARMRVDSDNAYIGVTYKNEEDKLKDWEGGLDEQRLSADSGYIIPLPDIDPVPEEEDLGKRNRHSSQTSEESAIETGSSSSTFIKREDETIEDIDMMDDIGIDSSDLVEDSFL
T1 sequence (P08631 whole entry): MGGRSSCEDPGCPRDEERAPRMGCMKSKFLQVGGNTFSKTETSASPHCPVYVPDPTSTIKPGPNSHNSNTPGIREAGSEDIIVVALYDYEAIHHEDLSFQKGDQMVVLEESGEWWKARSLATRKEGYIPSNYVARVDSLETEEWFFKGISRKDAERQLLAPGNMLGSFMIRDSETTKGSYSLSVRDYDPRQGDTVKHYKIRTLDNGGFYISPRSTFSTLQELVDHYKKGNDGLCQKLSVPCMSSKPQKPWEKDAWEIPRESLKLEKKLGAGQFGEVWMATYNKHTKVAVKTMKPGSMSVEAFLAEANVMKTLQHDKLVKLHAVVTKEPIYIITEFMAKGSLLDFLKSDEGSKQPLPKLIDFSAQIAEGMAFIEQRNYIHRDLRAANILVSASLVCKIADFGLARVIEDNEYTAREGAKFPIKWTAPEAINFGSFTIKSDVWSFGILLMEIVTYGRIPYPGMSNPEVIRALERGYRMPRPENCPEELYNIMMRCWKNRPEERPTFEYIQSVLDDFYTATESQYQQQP
T7 sequence (P07948 whole entry): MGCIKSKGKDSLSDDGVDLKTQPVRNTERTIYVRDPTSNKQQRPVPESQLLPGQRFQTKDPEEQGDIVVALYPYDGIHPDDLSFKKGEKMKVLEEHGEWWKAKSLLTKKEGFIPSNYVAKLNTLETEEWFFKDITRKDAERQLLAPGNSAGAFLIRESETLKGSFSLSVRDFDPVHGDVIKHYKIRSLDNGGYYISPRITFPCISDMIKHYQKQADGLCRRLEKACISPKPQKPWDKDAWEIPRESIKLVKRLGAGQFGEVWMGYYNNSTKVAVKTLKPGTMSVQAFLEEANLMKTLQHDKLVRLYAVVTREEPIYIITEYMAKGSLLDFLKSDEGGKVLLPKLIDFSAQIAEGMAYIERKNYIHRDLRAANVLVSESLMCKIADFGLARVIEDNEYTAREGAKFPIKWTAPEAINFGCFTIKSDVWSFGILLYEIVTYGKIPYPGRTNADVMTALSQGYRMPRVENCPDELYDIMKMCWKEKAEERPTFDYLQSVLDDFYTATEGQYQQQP
T10 sequence (O75716 whole entry): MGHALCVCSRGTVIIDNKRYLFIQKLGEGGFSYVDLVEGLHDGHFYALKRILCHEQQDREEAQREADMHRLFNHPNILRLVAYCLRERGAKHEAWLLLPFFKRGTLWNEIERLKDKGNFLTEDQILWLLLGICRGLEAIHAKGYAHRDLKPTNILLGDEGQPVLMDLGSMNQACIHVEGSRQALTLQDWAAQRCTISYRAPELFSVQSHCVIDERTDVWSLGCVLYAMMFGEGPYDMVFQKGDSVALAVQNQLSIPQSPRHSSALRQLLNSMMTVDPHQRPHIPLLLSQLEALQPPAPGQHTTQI

| SMILES | remaining activity at 5 µM [1] | remaining activity at 5 µM [2] | remaining activity at 5 µM [3] | remaining activity at 5 µM [4, 14] | remaining activity at 5 µM [4, 15] | remaining activity at 5 µM [4, 16] | remaining activity at 5 µM [5] | remaining activity at 5 µM [6] | remaining activity at 5 µM [7] | remaining activity at 5 µM [8] | remaining activity at 5 µM [9] | remaining activity at 5 µM [10] | remaining activity at 5 µM [11] | remaining activity at 5 µM [12] | remaining activity at 5 µM [13] | other results |
| --- | --- | --- | --- | --- | --- | --- | --- | --- | --- | --- | --- | --- | --- | --- | --- | --- |
| Cc1sc(C(=O)NC2COC2)cc1-n1cc(NC(=O)Nc2c(F)cccc2Cl)cn1 [Compound 27, 4-(4-(3-(2-chloro-6-fluorophenyl)ureido)-1H-pyrazol-1-yl)-5-methyl-N-(oxetan-3-yl)thiophene-2-carboxamide] |  |  |  |  |  |  |  |  |  |  |  |  |  |  |  | remaining activity at 10 µM ([1]; 10 uM): 95%; remaining activity at 10 µM ([2]; 10 uM): 114%; remaining activity at 10 µM ([3]; 10 uM): 105%; remaining activity at 10 µM [4, 14]: 105%; remaining activity at 10 µM [4, 15]: 92.7%; remaining activity at 10 µM [4, 16]: 100%; remaining activity at 10 µM ([5]; 10 uM): 76.8%; remaining activity at 10 µM ([6]; 10 uM): 104%; remaining activity at 10 µM ([7]; 10 uM): 106%; remaining activity at 10 µM ([8]; 10 uM): 80.7%; remaining activity at 10 µM ([9]; 10 uM): 102%; remaining activity at 10 µM ([10]; 10 uM): 94.4%; remaining activity at 10 µM ([11]; 10 uM): 88.5%; remaining activity at 10 µM ([12]; 10 uM): 127%; remaining activity at 10 µM ([13]; GRK7, 10 uM, read-out: % Enzyme Activity (relative to DMSO controls)): 98.3% |
| O=C(Nc1cnn(-c2csc(C(=O)NC3COC3)c2)c1)Nc1c(F)cccc1Cl [Compound 25, 4-(4-(3-(2-chloro-6-fluorophenyl)ureido)-1H-pyrazol-1-yl)-N-(oxetan-3-yl)thiophene-2-carboxamide] | 91.3% | 107% | 81.1% | 86.3% | 105% | 98.4% | 96.5% | 99% | 95.3% | 100% | 85.5% | 107% | 131% | 96.5% | 94% |  |
| O=C(Nc1cnn(-c2csc(C(=O)NC3COC3)c2)c1)Nc1ccccc1Cl [Compound 17, 4-(4-(3-(2-chlorophenyl)ureido)-1H-pyrazol-1-yl)-N-(oxetan-3-yl)thiophene-2-carboxamide] | 94% | 95.2% | 109% | 95.5% | 92.6% | 94.7% | 110% | 99.3% | 96.8% | 100% | 103% | 98.6% | 101% | 92.6% | 96.4% |  |
